The test system of experiment [1] is scratching behaviors in FADS mice. The experiment is described as follows: Scratching behaviors in FADS mice upon single systemic administration of αvβ3 integrin inhibitors. To be noted: for % Change from baseline in the number of scratchings (mean ± standard error): 53.7 μmol/kg i.p., single, 60 minutes after administration vs before administration; for grade of effect on % change from the baseline in the number of scratchings: single i.p., 53.7 μmol/kg (GLPG-0187 5.37 μmol/kg), paired t-test. Type of experiment: in vivo, mouse (FADS, Nestin-cre/Ikk2ff). The text has this: Nestin-cre transgenic mice were crossed with IKK2^ff mice to prepare Nestin-cre/Ikk2^ff mice specifically lacking IKK2 in their facial skin fibroblasts (Nunomura S, et al. J Invest Dermatol. 139:1274-1283, 2019). These mice inevitably develop atopic dermatitis-like rash limited to the face and intense itchy symptoms, and were therefore designated as Facial Atopic Dermatitis with Scratching (FADS) mice. […] For evaluation of the prophylactic or therapeutic agent of the present invention, FADS mice at 3 to 4 weeks of age or older were used because of showing spontaneous scratching behaviors. It should be noted that in this Example section, the above compound of formula (I) (more particularly “CP4715”) was used as the prophylactic or therapeutic agent of the present invention.
FADS mice were acclimated for 20 minutes to the environment of a recording cage, and then recorded with a video camera. The recorded videos were replayed, and scratching behaviors were counted assuming that hind paw scratching to the face and the subsequent movement of toe licking or paw lowering to the ground were regarded as one cycle of scratching behavior.
Prior to the administration of the above αvβ3 integrin inhibitors, FADS mice were recorded for 60 minutes with a video camera and then allowed to rest for 15 minutes. The compounds except for GLPG-0187 were each dissolved at 89.5 mM in a diluent (physiological saline containing 50% DMSO and 89.5 mM HCL), from which an amount corresponding to 53.7 μmol/kg per mouse was then taken and diluted with 0.3 mL of PBS, and then administered intraperitoneally. […] Mice administered with 0.3 mL of PBS containing an equal amount of the diluent as calculated based on the body weight were used as a control group.
The mice were recorded for 60 minutes with a video camera immediately after administration of the above αvβ3 integrin inhibitors. The number of scratchings before administration was used as a baseline, and % change from the baseline after administration was calculated for each compound. For statistical analysis, paired t-test was used. A P-value of less than 0.05 was considered to be statistically significant. The effect of an inhibitor whose mean change from the baseline was −65% or more at a P-value of less than 0.01 was expressed as “++”; the effect of an inhibitor whose mean change from the baseline was −60% or less at a P-value of less than 0.05 was expressed as “+”; and the effect of an inhibitor whose mean change from the baseline was −60% or less at a P-value of 0.05 or higher was expressed as “−.”

The target of experiment [2] is T1, integrin αvβ3 (Homo sapiens, UniProt P05106+P06756).
T1 construct: SW480 cells, a human colon cancer cell line not expressing integrin β3; expressed in transfected cells; host or cells: SW480 cells (human colon cancer) stably expressing human integrin β3
Kind of experiment: Inhibition of periostin-dependent adhesion of SW480 cells expressing integrin αvβ3. Type of experiment: cell-based. To be noted: immobilized recombinant human periostin, FIG. 6; for IC50: SW480 cells expressing human integrin β3, compounds at 0.001-1 μM, read-out: 50% inhibition concentration (IC50 value) for cell adhesion inhibitory activity; for cell adhesion inhibitory effect (in words): SW480 cells expressing integrin αvβ3. The procedure: For use in cell adhesion experiments, SW480 cells, a human colon cancer cell line not expressing integrin β3, were genetically engineered to stably express human integrin β3 (Nanri Y, et al. Am J Respir Cell Mol Biol. 62:204-216, 2020). The compounds shown in Table 1 were examined for their inhibitory activity against adhesion between integrin αvβ3 and periostin according to the following procedures. First, a 96-well plate was treated with 10 μg/mL recombinant human periostin (Bio-Techne) at 4 °C for 16 hours to immobilize periostin. The SW480 cells expressing integrin αvβ3 (5×10^4 cells) were reacted at room temperature for 15 minutes with the above compounds at 0.001, 0.01, 0.1 and 1 μM in serum-free DMEM (Dulbecco's Modified Eagle Medium) containing 0.5% bovine serum albumin and 0.25 mM MnCl2. A group receiving no compound was used as a control. The reacted cell suspensions were added to separate wells of the above human periostin-immobilized plate, and the plate was centrifuged at 10×g for 5 minutes and then cultured at 37 °C for 60 minutes. Then, after the adhered cells were washed to remove unbound cells, the adhered cells were fixed with 1% formaldehyde and stained with 0.5% crystal violet. The fixed and stained cells were solubilized with 0.2% Triton X-100 and measured for absorbance at 595 nm. The absorbance of the control (i.e., the group receiving no compound) was set to 0% inhibition. […] Cell adhesion in this test system is periostin-dependent, and a compound inhibiting this cell adhesion can be referred to as a periostin receptor antagonist.

The subject of experiment [3] is integrin αvβ3. Particulars: cited from earlier work.
The subject of another experiment is IL-31 receptor. Particulars: Kabashima K, et al. N Engl J Med. 383:141-150, 2020; cited from earlier work.

T1 sequence (P06756 31-889 limits assumed): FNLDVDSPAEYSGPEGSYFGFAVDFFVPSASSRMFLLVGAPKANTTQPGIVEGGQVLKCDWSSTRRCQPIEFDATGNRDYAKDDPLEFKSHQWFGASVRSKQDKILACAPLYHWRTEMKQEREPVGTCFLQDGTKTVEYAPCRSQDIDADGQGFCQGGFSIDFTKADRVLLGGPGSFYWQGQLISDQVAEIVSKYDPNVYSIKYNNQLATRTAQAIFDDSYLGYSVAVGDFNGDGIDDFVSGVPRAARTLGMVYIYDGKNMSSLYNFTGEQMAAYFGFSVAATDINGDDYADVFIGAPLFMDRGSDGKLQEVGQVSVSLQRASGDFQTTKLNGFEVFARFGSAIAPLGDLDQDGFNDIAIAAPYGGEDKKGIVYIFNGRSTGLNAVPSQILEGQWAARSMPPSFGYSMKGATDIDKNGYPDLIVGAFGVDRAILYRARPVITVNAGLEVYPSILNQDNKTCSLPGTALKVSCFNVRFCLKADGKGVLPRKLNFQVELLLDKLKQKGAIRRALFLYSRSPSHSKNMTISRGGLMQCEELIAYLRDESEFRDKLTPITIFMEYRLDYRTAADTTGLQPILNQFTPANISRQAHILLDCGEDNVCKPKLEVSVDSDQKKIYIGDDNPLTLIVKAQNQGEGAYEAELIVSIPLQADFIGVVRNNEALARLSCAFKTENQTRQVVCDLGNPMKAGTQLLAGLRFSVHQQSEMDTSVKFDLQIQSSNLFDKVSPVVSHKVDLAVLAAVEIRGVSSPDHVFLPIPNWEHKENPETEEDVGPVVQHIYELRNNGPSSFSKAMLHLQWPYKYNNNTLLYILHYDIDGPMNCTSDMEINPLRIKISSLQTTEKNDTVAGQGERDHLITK
T1 sequence (P06756 891-1048 partner limits assumed): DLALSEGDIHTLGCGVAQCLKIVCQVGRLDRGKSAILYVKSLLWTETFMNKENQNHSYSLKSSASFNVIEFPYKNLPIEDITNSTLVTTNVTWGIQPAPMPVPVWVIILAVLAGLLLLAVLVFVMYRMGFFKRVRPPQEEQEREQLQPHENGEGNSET
T1 sequence (P05106 27-788): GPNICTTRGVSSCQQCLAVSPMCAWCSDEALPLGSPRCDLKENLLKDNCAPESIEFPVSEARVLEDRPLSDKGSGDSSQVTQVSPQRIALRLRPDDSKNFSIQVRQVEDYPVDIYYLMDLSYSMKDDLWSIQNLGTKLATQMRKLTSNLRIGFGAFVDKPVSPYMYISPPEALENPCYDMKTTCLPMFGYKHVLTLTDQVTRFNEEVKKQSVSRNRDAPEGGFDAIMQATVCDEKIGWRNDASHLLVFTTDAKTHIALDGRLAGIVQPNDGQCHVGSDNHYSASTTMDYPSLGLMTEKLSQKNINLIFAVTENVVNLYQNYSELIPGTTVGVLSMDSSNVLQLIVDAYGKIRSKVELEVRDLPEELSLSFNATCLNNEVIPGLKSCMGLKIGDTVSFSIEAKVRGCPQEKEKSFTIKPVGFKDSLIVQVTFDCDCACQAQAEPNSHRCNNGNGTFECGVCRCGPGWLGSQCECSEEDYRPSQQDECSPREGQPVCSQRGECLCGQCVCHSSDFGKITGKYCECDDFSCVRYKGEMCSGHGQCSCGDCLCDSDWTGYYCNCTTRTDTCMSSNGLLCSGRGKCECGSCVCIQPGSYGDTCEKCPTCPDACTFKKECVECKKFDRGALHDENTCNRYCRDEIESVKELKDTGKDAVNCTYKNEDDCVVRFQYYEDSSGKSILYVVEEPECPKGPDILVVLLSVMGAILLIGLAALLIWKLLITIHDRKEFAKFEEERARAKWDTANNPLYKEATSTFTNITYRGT

In the case of `CC(C)COC(=O)N[C@@H](CCC(=O)N1CCN(c2cccc(NC3=NCC(F)CN3)c2)CC1)C(=O)O` (stereo partly drawn) [BS-1417, (2S)-5-(4-(3-((5-fluoro-1,4,5,6-tetrahydropyrimidin-2-yl)amino)phenyl)piperazin-1-yl)-2-((isobutoxycarbonyl)amino)-5-oxopentanoic acid], in experiment [1], the “% Change from baseline in the number of scratchings (mean ± standard error)” value (from here on “% Change from baseline … (mean ± standard error)”) was −43.3 ± 11.9% and the “grade of effect on % change from the baseline in the number of scratchings” value (shortened to “grade of effect on % change”) is “+ (mean change from the baseline was −60% or less at a P-value of less than 0.05)”. The IC50 on integrin αvβ3 [2] was not below 1000 nM.
`O=C(NC[C@H](NS(=O)(=O)c1ccccc1)C(=O)O)c1ccc(N2CCC(NC3=NCCCN3)CC2)c(F)c1` [CP derivative 2, (S)-3-(3-fluoro-4-(4-((1,4,5,6-tetrahydropyrimidin-2-yl)amino)piperidin-1-yl)benzamido)-2-(phenylsulfonamido)propanoic acid]: in experiment [1], the “% Change from baseline … (mean ± standard error)” value is −30.2 ± 18.6% and the “grade of effect on % change” value is given as “− (mean change from the baseline was −60% or less at a P-value of 0.05 or higher)”. On integrin αvβ3 [2], the IC50 was not above 1 nM and the “cell adhesion inhibitory effect (in words)” value was “high”.
Take `O=C(NC[C@H](NS(=O)(=O)c1ccccc1)C(=O)O)c1ccc(N2CCC[C@H](NC3=NCCCN3)C2)cc1F` [CP derivative 7, (S)-3-(2-fluoro-4-((S)-3-((1,4,5,6-tetrahydropyrimidin-2-yl)amino)piperidin-1-yl)benzamido)-2-(phenylsulfonamido)propanoic acid]: in experiment [1], the “% Change from baseline … (mean ± standard error)” value is reported as −52.0 ± 26.6% and the “grade of effect on % change” value is “− (mean change from the baseline was −60% or less at a P-value of 0.05 or higher)”. Also, at integrin αvβ3 [2], the IC50 is not above 1 nM and the “cell adhesion inhibitory effect (in words)” value was “high”.
As for `O=C(NC[C@H](NS(=O)(=O)c1cccs1)C(=O)O)c1ccc(N2CCC[C@H](NC3=NCCCN3)C2)cc1` [CP derivative 9, (S)-3-(4-((S)-3-((1,4,5,6-tetrahydropyrimidin-2-yl)amino)piperidin-1-yl)benzamido)-2-(thiophene-2-sulfonamido)propanoic acid], in experiment [1], the “% Change from baseline … (mean ± standard error)” value is −24.5 ± 19.9% and the “grade of effect on % change” value is “− (mean change from the baseline was −60% or less at a P-value of 0.05 or higher)”. Further, at integrin αvβ3 [2], the IC50 was not above 1 nM and the “cell adhesion inhibitory effect (in words)” value is reported as “high”.
As to `CC(C)[C@H]1C(=O)N[C@@H](CCCNC(=N)N)C(=O)NCC(=O)N[C@@H](CC(=O)O)C(=O)N[C@H](Cc2ccccc2)C(=O)N1C` [Cilengitide, 2-((2S,5R,8S,11S)-5-benzyl-11-(3-guanidinopropyl)-8-isopropyl-7-methyl-3,6,9,12,15-pentaoxo-1,4,7,10,13-pentaazacyclopentadecan-2-yl)acetic acid], the “% Change from baseline … (mean ± standard error)” value in experiment [1] is −31.7 ± 17.8%.
Turning to `O=C(O)C[C@H]1Cc2ccc(OCCCNc3ccccn3)cc2CN(CC(F)(F)F)C1=O` [SB-267268 enantiomer, (R)-2-(3-oxo-8-(3-(pyridin-2-ylamino)propoxy)-2-(2,2,2-trifluoroethyl)-2,3,4,5-tetrahydro-1H-benzo[c]azepin-4-yl)acetic acid], in experiment [1], the “% Change from baseline … (mean ± standard error)” value is given as “+45.5 ± 28.8%”. On integrin αvβ3 [2], the IC50 was not below 1000 nM.
Turning to `O=C(O)C[C@@H]1Cc2ccc(OCCCNc3ccccn3)cc2CN(CC(F)(F)F)C1=O` [SB-267268, (S)-2-(3-oxo-8-(3-(pyridin-2-ylamino)propoxy)-2-(2,2,2-trifluoroethyl)-2,3,4,5-tetrahydro-1H-benzo[c]azepin-4-yl)acetic acid], in experiment [1], the “% Change from baseline … (mean ± standard error)” value is −5.5 ± 13.4% and the “grade of effect on % change” value is reported as “− (mean change from the baseline was −60% or less at a P-value of 0.05 or higher)”. In addition, at integrin αvβ3 [2], the IC50 is not above 20 nM and the “cell adhesion inhibitory effect (in words)” value is recorded as “moderate”.
Regarding `CNc1cccc(CCOc2ccc3c(c2)CN(CC(F)(F)F)C(=O)[C@H](CC(=O)O)C3)n1` [SB-273005, (S)-2-(8-(2-(6-(methylamino)pyridin-2-yl)ethoxy)-3-oxo-2-(2,2,2-trifluoroethyl)-2,3,4,5-tetrahydro-1H-benzo[c]azepin-4-yl)acetic acid], in experiment [1], the “% Change from baseline … (mean ± standard error)” value is −33.0 ± 11.6% and the “grade of effect on % change” value was “+ (mean change from the baseline was −60% or less at a P-value of less than 0.05)”. At integrin αvβ3 [2], the IC50 is not above 20 nM and the “cell adhesion inhibitory effect (in words)” value is given as “moderate”.
For the molecule `N=C(N)Nc1cccc(C(=O)NCC(=O)NC(CC(=O)O)c2cc(Cl)cc(Cl)c2)c1` (centres unmarked) [SC-68448, 3-(3,5-Dichlorophenyl)-3-(2-(3-guanidinobenzamido)acetamido)propanoic acid], in experiment [1], the “% Change from baseline … (mean ± standard error)” value was −83.8 ± 7.7% and the “grade of effect on % change” value is listed as “++ (mean change from the baseline was −65% or more at a P-value of less than 0.01)”. Also, at integrin αvβ3 [2], the “cell adhesion inhibitory effect (in words)” value is “moderate”. Besides, the “inhibition of binding between integrin αvβ3 and vitronectin” value with integrin αvβ3 [3] was “inhibit binding”.
As for `Cc1cc(C)c(S(=O)(=O)N[C@@H](CNC(=O)c2ccc3c(cnn3CCCNc3ncc[nH]3)c2)C(=O)O)c(C)c1` [SM-256, (S)-3-(1-(3-((1H-imidazol-2-yl)amino)propyl)-1H-indazole-5-carboxamido)-2-((2,4,6-trimethylphenyl)sulfonamido)propanoic acid], in experiment [1], the “% Change from baseline … (mean ± standard error)” value is listed as −22.5 ± 19.6%. Also, on integrin αvβ3 [2], the IC50 was not above 100 nM and the “cell adhesion inhibitory effect (in words)” value is given as “low”.

B1: nemolizumab: anti-IL-31 receptor antibody (antibody, chains of the INN, looked up)
heavy: QVQLVQSGAEVKKPGASVKVSCKASGYTFTGYIMNWVRQAPGQGLEWMGLINPYNGGTDYNPQFQDRVTITADKSTSTAYMELSSLRSEDTAVYYCARDGYDDGPYTLETWGQGTLVTVSSASTKGPSVFPLAPSSKSTSGGTAALGCLVKDYFPEPVTVSWNSGALTSGVHTFPAVLQSSGLYSLSSVVTVPSSNFGTQTYTCNVDHKPSNTKVDKTVERKSCVECPPCPAPPVAGPSVFLFPPKPKDTLMISRTPEVTCVVVDVSQEDPEVQFNWYVDGVEVHNAKTKPREEQFNSTFRVVSVLTVVHQDWLNGKEYKCKVSNKGLPAPIEKTISKTKGQPREPQVYTLPPSQEEMTKNQVSLTCLVKGFYPSDIAVEWESNGQPENNYKTTPPMLDSDGSFFLYSKLTVDKSRWQEGNVFSCSVMHEALHNHYTQKSLSLSP
light: DIQMTQSPSSLSASVGDRVTITCQASEDIYSFVAWYQQKPGKAPKLLIYNAQTEAQGVPSRFSGSGSGTDFTLTISSLQPEDFATYYCQHHYDSPLTFGGGTKVEIKRTVAAPSVFIFPPSDEQLKSGTASVVCLLNNFYPREAKVQWKVDNALQSGNSQESVTEQDSKDSTYSLSSTLTLSKADYEKHKVYACEVTHQGLSSPVTKSFNRGEC
Regarding B1, in the experiment on IL-31 receptor, the pruritus entry was “improve pruritus” and the skin inflammation result is recorded as “improving effect on skin inflammation”.

(Values after patent US20260355192A1, “PROPHYLACTIC OR THERAPEUTIC AGENT FOR PERIOSTIN-MEDIATED DISEASE AND PRURITUS ASSOCIATED THEREWITH” (SAGA UNIVERSITY, priority 2022, published 2026).)
